This is an account of results in US20220282217A1, “COMPOSITIONS AND METHODS FOR PREPARING T CELL COMPOSITIONS AND USES THEREOF” (priority 2019, published 2022).

Where a SMILES comes first, the peptide text is derived from it.

Usually IC50 stands for the midpoint of a concentration-inhibition curve.

Sequence of HLA-A03.01 (P04439 25-365): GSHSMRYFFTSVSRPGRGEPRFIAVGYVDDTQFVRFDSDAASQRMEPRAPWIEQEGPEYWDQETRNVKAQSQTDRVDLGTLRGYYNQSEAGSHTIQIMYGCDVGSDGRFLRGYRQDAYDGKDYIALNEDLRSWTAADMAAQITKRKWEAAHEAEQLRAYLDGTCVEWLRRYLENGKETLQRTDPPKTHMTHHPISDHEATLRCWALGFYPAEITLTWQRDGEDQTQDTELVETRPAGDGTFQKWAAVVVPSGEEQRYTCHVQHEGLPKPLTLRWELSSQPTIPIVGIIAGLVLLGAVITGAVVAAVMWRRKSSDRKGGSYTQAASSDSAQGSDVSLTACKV
Sequence of HLA-A03.01 (P61769 21-119 partner): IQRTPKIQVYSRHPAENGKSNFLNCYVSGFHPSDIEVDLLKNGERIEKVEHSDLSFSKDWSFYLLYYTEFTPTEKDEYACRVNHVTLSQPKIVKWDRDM

The assay has as its target HLA-A03.01 (Homo sapiens, UniProt P04439). Kind of assay: Class I MHC peptide binding affinity (displacement of radiolabeled reference peptide). As to conditions: allele A03.01; read-out: Observed Affinity (IC50; (nM)).
Method: In brief, MHCI complexes were prepared and bound to radiolabeled reference peptides. Peptides were incubated at varying concentrations with these complexes for 2 days, and the amount of remaining radiolabeled peptide bound to WWI was measured using size exclusion gel-filtration.
For the molecule `CSCC[C@H](NC(=O)[C@@H](N)CC(C)C)C(=O)N[C@@H](CC(C)C)C(=O)N[C@@H](CC(C)C)C(=O)N[C@@H](CCCNC(=N)N)C(=O)N[C@@H](CC(C)C)C(=O)N[C@@H](CC(N)=O)C(=O)N[C@@H](CC(C)C)C(=O)N[C@@H](CCCNC(=N)N)C(=O)N[C@@H](CCCCN)C(=O)O` (H-LMLLRLNLRK-OH; N-terminus and C-terminus assumed), the concentration for half-maximal inhibition (IC50) was determined as 6 nM.
As to `C[C@@H](O)[C@H](NC(=O)[C@@H](N)CCCCN)C(=O)N[C@@H](Cc1ccccc1)C(=O)N[C@@H](CCC(=O)O)C(=O)N[C@@H](CCCCN)C(=O)N[C@@H](CCCCN)C(=O)NCC(=O)N[C@@H](CCC(=O)O)C(=O)N[C@@H](CCCCN)C(=O)O` (H-KTFEKKGEK-OH; N-terminus and C-terminus assumed), the IC50 was 32.2 nM.
With `CC(C)C[C@H](NC(=O)[C@@H](NC(=O)[C@@H](N)[C@@H](C)O)[C@@H](C)O)C(=O)N[C@@H](CC(N)=O)C(=O)N[C@@H](CO)C(=O)N1CCC[C@H]1C(=O)N1CCC[C@H]1C(=O)N[C@@H](CC(C)C)C(=O)N[C@@H](CCCCN)C(=O)O` (H-TTLNSPPLK-OH; N-terminus and C-terminus assumed), the 50% inhibitory concentration (IC50) was determined as 9.8 nM.
On to `CC(C)C[C@H](NC(=O)[C@H](C)NC(=O)[C@@H]1CCCN1C(=O)[C@@H](NC(=O)[C@H](CCCCN)NC(=O)[C@H](CCCCN)NC(=O)[C@H](CC(C)C)NC(=O)[C@H](CO)NC(=O)[C@@H](N)Cc1c[nH]c2ccccc12)C(C)C)C(=O)N[C@@H](CCCCN)C(=O)O` (H-WSLKKVPALK-OH; N-terminus and C-terminus assumed), for which the concentration for half-maximal inhibition (IC50) was found to be 94.9 nM.
Regarding `CC(C)C[C@H](NC(=O)[C@@H](N)CC(C)C)C(=O)N[C@H](C(=O)N[C@@H](CO)C(=O)N[C@@H](CO)C(=O)N[C@@H](CO)C(=O)N[C@@H](CCCNC(=N)N)C(=O)N[C@@H](CCC(=O)O)C(=O)N[C@@H](Cc1c[nH]c2ccccc12)C(=O)N[C@@H](CCCCN)C(=O)O)[C@@H](C)O` (H-LLTSSSREWK-OH; N-terminus and C-terminus assumed), the IC50 came to 1770 nM.
In the case of `CSCC[C@H](NC(=O)[C@@H](NC(=O)[C@@H](N)Cc1ccccc1)C(C)C)C(=O)N[C@@H](CO)C(=O)N[C@@H](CC(=O)O)C(=O)N[C@H](C(=O)N[C@H](C(=O)N[C@@H](Cc1ccc(O)cc1)C(=O)N[C@@H](CCCCN)C(=O)O)[C@@H](C)O)[C@@H](C)O` (H-FVMSDTTYK-OH; N-terminus and C-terminus assumed), the IC50 is 66.9 nM.
For `CC[C@H](C)[C@H](NC(=O)[C@H](CS)NC(=O)[C@H](Cc1ccccc1)NC(=O)[C@H](CC(N)=O)NC(=O)[C@H](C)NC(=O)[C@H](CC(C)C)NC(=O)[C@@H](N)CS)C(=O)N[C@@H](Cc1ccccc1)C(=O)N[C@@H](CC(N)=O)C(=O)N[C@@H](CCCNC(=N)N)C(=O)O`, the IC50 turned out to be 222 nM.
Turning to `CC[C@H](C)[C@H](NC(=O)[C@H](C)NC(=O)[C@H](CS)NC(=O)[C@@H](NC(=O)[C@H](Cc1ccc(O)cc1)NC(=O)[C@@H](N)[C@@H](C)O)[C@@H](C)O)C(=O)N[C@H](C(=O)N[C@H](C(=O)N[C@H](C(=O)N[C@@H](CCCCN)C(=O)O)C(C)C)[C@@H](C)O)[C@@H](C)O` (H-TYTCAITTVK-OH; N-terminus and C-terminus assumed), the concentration for half-maximal inhibition (IC50) was determined as 2360 nM.
Regarding `CC(C)C[C@H](N)C(=O)N[C@@H](Cc1ccccc1)C(=O)N[C@@H](Cc1ccccc1)C(=O)N[C@@H](Cc1ccccc1)C(=O)N[C@@H](Cc1ccccc1)C(=O)N[C@@H](Cc1ccccc1)C(=O)N[C@@H](CCC(=O)O)C(=O)N[C@H](C(=O)N[C@@H](CCCCN)C(=O)O)[C@@H](C)O` (H-LFFFFFETK-OH; N-terminus and C-terminus assumed), the IC50 came out at 413 nM.
With `CC(C)C[C@H](NC(=O)[C@H](C)N)C(=O)N[C@@H](Cc1ccccc1)C(=O)N[C@@H](Cc1ccccc1)C(=O)N[C@@H](Cc1ccccc1)C(=O)N[C@@H](Cc1ccccc1)C(=O)N[C@@H](Cc1ccccc1)C(=O)N[C@@H](CCC(=O)O)C(=O)N[C@H](C(=O)N[C@@H](CCCCN)C(=O)O)[C@@H](C)O` (H-ALFFFFFETK-OH; N-terminus and C-terminus assumed), the IC50 is 216 nM.
Regarding `CC(C)C[C@H](NC(=O)[C@@H](N)[C@@H](C)O)C(=O)N[C@@H](CC(N)=O)C(=O)N[C@@H](CO)C(=O)N1CCC[C@H]1C(=O)N1CCC[C@H]1C(=O)N[C@@H](CC(C)C)C(=O)N[C@@H](CCCCN)C(=O)N[C@@H](CCCCN)C(=O)O` (H-TLNSPPLKK-OH; N-terminus and C-terminus assumed), the IC50 is 5.4 nM.
With `CC[C@H](C)[C@H](NC(=O)[C@H](CCCCN)NC(=O)[C@@H](N)CCCNC(=N)N)C(=O)N[C@@H](CO)C(=O)N[C@@H](CC(N)=O)C(=O)N[C@@H](Cc1c[nH]c2ccccc12)C(=O)N[C@@H](CO)C(=O)N[C@@H](CC(C)C)C(=O)N[C@@H](CCCCN)C(=O)N[C@@H](CCCCN)C(=O)O` (H-RKISNWSLKK-OH; N-terminus and C-terminus assumed), the 50% inhibitory concentration (IC50) came to 131 nM.
In the case of `CC(C)C[C@H](NC(=O)[C@H](CCC(N)=O)NC(=O)[C@H](CC(C)C)NC(=O)[C@@H](N)Cc1c[nH]cn1)C(=O)N[C@@H](CCCCN)C(=O)N[C@@H](CO)C(=O)N[C@@H](CS)C(=O)N[C@@H](CCCNC(=N)N)C(=O)N[C@@H](CCCNC(=N)N)C(=O)N[C@@H](CCCCN)C(=O)O` (H-HLQLKSCRRK-OH; N-terminus and C-terminus assumed), the 50% inhibitory concentration (IC50) was found to be 96.9 nM.
As to `CC(C)C[C@H](NC(=O)[C@@H](NC(=O)[C@@H](N)[C@@H](C)O)[C@@H](C)O)C(=O)N[C@@H](CC(N)=O)C(=O)N[C@@H](CO)C(=O)N1CCC[C@H]1C(=O)N1CCC[C@H]1C(=O)N[C@@H](CC(C)C)C(=O)N[C@@H](CCCCN)C(=O)N[C@@H](CCCCN)C(=O)O` (H-TTLNSPPLKK-OH; N-terminus and C-terminus assumed), the concentration for half-maximal inhibition (IC50) stood at 14.3 nM.
Regarding `CSCC[C@H](NC(=O)[C@@H](N)Cc1ccc(O)cc1)C(=O)N[C@@H](Cc1ccccc1)C(=O)N[C@@H](CC(C)C)C(=O)N[C@@H](CCCCN)C(=O)N[C@@H](C)C(=O)N[C@@H](CCC(=O)O)C(=O)N[C@@H](CO)C(=O)N[C@@H](CCCCN)C(=O)O` (H-YMFLKAESK-OH; N-terminus and C-terminus assumed), the half-maximal inhibitory concentration (IC50) is 79.8 nM.
Consider `CSCC[C@H](NC(=O)[C@H](CC(C)C)NC(=O)[C@@H](N)CCCCN)C(=O)N[C@@H](CC(C)C)C(=O)N[C@@H](CC(C)C)C(=O)N[C@@H](CCCNC(=N)N)C(=O)N[C@@H](CC(C)C)C(=O)N[C@@H](CC(N)=O)C(=O)N[C@@H](CC(C)C)C(=O)N[C@@H](CCCNC(=N)N)C(=O)O` (H-KLMLLRLNLR-OH; N-terminus and C-terminus assumed), for which the half-inhibitory concentration (IC50) turned out to be 48.4 nM.
`CC(C)C[C@H](NC(=O)[C@H](Cc1ccccc1)NC(=O)[C@H](CO)NC(=O)[C@@H](N)CC(C)C)C(=O)N[C@@H](CO)C(=O)N[C@@H](CO)C(=O)N[C@@H](Cc1c[nH]c2ccccc12)C(=O)N[C@@H](CC(=O)O)C(=O)N[C@@H](Cc1ccc(O)cc1)C(=O)N[C@@H](CCCNC(=N)N)C(=O)O` (H-LSFLSSWDYR-OH; N-terminus and C-terminus assumed): the IC50 came out at 101 nM.
On to `CSCC[C@H](NC(=O)[C@H](C)N)C(=O)N[C@H](C(=O)N[C@H](C(=O)N[C@@H](CO)C(=O)N[C@@H](CO)C(=O)N[C@@H](CO)C(=O)N[C@@H](CCC(N)=O)C(=O)N[C@@H](CCCCN)C(=O)N[C@@H](CC(N)=O)C(=O)O)[C@@H](C)O)[C@@H](C)O` (H-AMTTSSSQKN-OH; N-terminus and C-terminus assumed), for which the IC50 stood at 2340 nM.
With `CC(C)[C@H](NC(=O)[C@@H](N)CCCNC(=N)N)C(=O)N[C@@H](CC(N)=O)C(=O)N[C@H](C(=O)N[C@@H](C)C(=O)N[C@@H](Cc1c[nH]c2ccccc12)C(=O)N[C@@H](CCCCN)C(=O)N[C@H](C(=O)N[C@@H](CCCCN)C(=O)O)[C@@H](C)O)[C@@H](C)O` (H-RVNTAWKTK-OH; N-terminus and C-terminus assumed) the figure was 8.6 nM; with `CSCC[C@H](NC(=O)[C@@H](N)CCCCN)C(=O)N[C@@H](CCCNC(=N)N)C(=O)N[C@@H](CCCCN)C(=O)N[C@@H](CCCCN)C(=O)N[C@@H](Cc1ccc(O)cc1)C(=O)N[C@@H](C)C(=O)N[C@@H](CCC(N)=O)C(=O)N[C@@H](CCCCN)C(=O)O` (H-KMRKKYAQK-OH; N-terminus and C-terminus assumed), 5.7 nM.
Turning to `CC(C)C[C@H](NC(=O)[C@@H](NC(=O)[C@@H](NC(=O)[C@@H](N)CS)[C@@H](C)O)[C@@H](C)O)C(=O)N[C@@H](CC(N)=O)C(=O)N[C@@H](CO)C(=O)N1CCC[C@H]1C(=O)N1CCC[C@H]1C(=O)N[C@@H](CC(C)C)C(=O)N[C@@H](CCCCN)C(=O)O` (H-CTTLNSPPLK-OH; N-terminus and C-terminus assumed), the IC50 was 63.6 nM.
`C[C@@H](O)[C@H](NC(=O)[C@H](CCC(=O)O)NC(=O)[C@H](CCCCN)NC(=O)[C@H](CCCCN)NC(=O)[C@H](CCCCN)NC(=O)[C@H](CO)NC(=O)[C@@H](N)CCCCN)C(=O)N[C@@H](Cc1ccccc1)C(=O)N[C@@H](CCCCN)C(=O)O` (H-KSKKKETFK-OH; N-terminus and C-terminus assumed): the half-maximal inhibitory concentration (IC50) came out at 74.3 nM.
As for `CC(C)C[C@H](N)C(=O)N[C@H](C(=O)N[C@@H](CO)C(=O)N[C@@H](CO)C(=O)N[C@@H](CO)C(=O)N[C@@H](CCCNC(=N)N)C(=O)N[C@@H](CCC(=O)O)C(=O)N[C@@H](Cc1c[nH]c2ccccc12)C(=O)N[C@@H](CCCCN)C(=O)O)[C@@H](C)O` (H-LTSSSREWK-OH; N-terminus and C-terminus assumed), the figure is 118 nM; as for `CC(C)C[C@H](NC(=O)[C@@H](N)CO)C(=O)N[C@@H](CCC(N)=O)C(=O)N1CCC[C@H]1C(=O)N1CCC[C@H]1C(=O)N1CCC[C@H]1C(=O)N1CCC[C@H]1C(=O)NCC(=O)N[C@@H](Cc1ccccc1)C(=O)N[C@@H](CCCCN)C(=O)O` (H-SLQPPPPGFK-OH; N-terminus and C-terminus assumed), 19 nM.
For the molecule `CC[C@H](C)[C@H](NC(=O)[C@H](Cc1c[nH]c2ccccc12)NC(=O)[C@H](CS)NC(=O)[C@H](Cc1ccccc1)NC(=O)[C@H](Cc1ccccc1)NC(=O)[C@@H](N)Cc1ccccc1)C(=O)N[C@@H](CC(C)C)C(=O)N[C@@H](CO)C(=O)N[C@@H](CS)C(=O)N[C@@H](CCCCN)C(=O)O` (H-FFFCWILSCK-OH; N-terminus and C-terminus assumed), the 50% inhibitory concentration (IC50) was 597 nM.
